# Experimental data: PubChem BioAssay AID1963850 (Molecular Pharmacology Branch, DTP, NCI, 2024)
# Test system: 192522-019-R-J2-PDC complex tumor spheroid viability
# Assay: Anticancer human tumor 192522-019-R-J2-PDC patient-derived colon adenocarcinoma cell line growth inhibition [POLQ]
# Settings: for IC50: curve of first compound; for viability, T/C: stronger effect = lower value
# Method: Multicellular complex tumor spheroid response to Polymerase (POL) inhibitors (novobiocin, ART-558, RP6685) in combination with a variety of drugs and investigational agents in selected tumor cell lines
# The POL inhibitors (novobiocin, ART-558, and RP6685) were evaluated both individually and in combination with standard of care and investigational anticancer small molecules within a complex spheroid model of solid tumors. . Complex spheroids include a stromal component modeled by human endothelial cells (HUVEC) and fibroblasts modeled by human mesenchymal stem cells (MSCs). The concentration ranges selected for each drug and investigational agent were based upon clinically achievable concentrations if the clinical Cmax of the agent was known.
# Compounds. The drugs and investigational agents: novobiocin (NSC847541), ART-558 (NSC835418), RP-6685 (NSC848927), peposertib (NSC802822), ceralasertib (NSC780249), elimusertib (NSC800525), camonsertib (NSC841442), AZD-1390 (NSC803789), olaparib (NSC753686), talazoparib (NSC767125), rucaparib (NSC756644), sotorasib (NSC818433), MRTX-1133 (NSC836407), SN-38 (NSC673596), topotecan (NSC609699), epotoside (NSC141540), doxorubicin (NSC123127), gemcitabine (NSC613327), 5-fluorouracil (NSC19893), paclitaxel (NSC125973), vemurafenib (NSC761431), MSA-2 (NSC828583), SN-011 (NSC837082), adavosertib (NSC754352), prexasertib (NSC758257), carboplatin (NSC241240) and oxaliplatin (NSC266046), were obtained from the National Cancer Institute (NCI) Developmental Therapeutics Program Chemical Repository (21). The FDA-approved anticancer drug set is available from the Developmental Therapeutics Program at https://dtp.cancer.gov/organization/dscb/obtaining/. […] The stock solutions were prepared in dimethyl sulfoxide (DMSO, Sigma-Aldrich, St. Louis, MO, cat. D2650), except for the platinum compounds which were prepared in saline (Quality Biological, Gaithersburg, MD, cat. 114-055-101), at 800-fold the tested concentration and stored at -70 degrees C prior to their use. All drugs and investigational agents were tested over a range starting from a high concentration at or near the clinical Cmax and decreasing in half-log increments. If the clinical Cmax for an agent had not been determined, the highest concentration tested was 10 microM, except for SN-38, which was tested at a high concentration of 1 microM.
# Cell Culture. All cells were maintained in an incubator at 37 degrees C and 5% CO2 with 95% humidity. The PDC lines were cultured according to standard operating procedures established by the NCI PDMR (https://pdmr.cancer.gov). Table 3 of the manuscript, lists the cell lines along with the number of the three cell types plated to form the mct-spheroids and media for tumor cell growth. After thawing, all PDC lines, except 997537-175-T-J1-PDC and 415267-285-R-J2-PDC, were cultured in Matrigel-coated flasks prepared with a working solution of 1X Ham's F-12 nutrient mix, without supplementation (Thermo Fisher Scientific, cat. 11765054), 100 U/mL penicillin-streptomycin (Thermo Fisher Scientific, cat. 15140122), and 2.5% Matrigel (Corning Inc., Corning, NY, cat. 354248) for the first three passages. The two PDC lines 997537-175-T-J1-PDC and 415267-285-R-J2-PDC were cultured on uncoated flasks. The 857933-349-R-J2-PDC line was cultured in 6C/Colon 1B media containing advanced DMEM/F-12 (Thermo Fisher Scientific, cat. 12634028), 10 mM HEPES (Thermo Fisher Scientific, cat. 15630080), 1X GlutaMAX supplement (Thermo Fisher Scientific, cat. 35050061), 0.1 mg/mL primocin (InvivoGen, San Diego, CA, cat. ant-pm-2), 10% defined fetal bovine serum, heat inactivated (HyClone Laboratories Inc., Logan, UT, cat. SH30070.03HI), 50% L-WRN conditioned media (ATCC, cat. CRL-3276), 1.25 mM N-Acetyl-L-cysteine (Sigma-Aldrich, cat. A9165), 10 mM nicotinamide (Sigma-Aldrich, cat. N0636), 1X B-27 supplement (Thermo Fisher Scientific, cat. 17504044), 1X N-2 supplement (Thermo Fisher Scientific, cat. […]
# [1] = second compound 0.0316 µM, first compound 0.0316 µM
# [2] = second compound 0.0316 µM, first compound 0.1 µM
# [3] = second compound 0.0316 µM, first compound 0.316 µM
# [4] = second compound 0.0316 µM, first compound 1 µM
# [5] = second compound 0.0316 µM, first compound 3.16 µM
# [6] = second compound 0.0316 µM, first compound 10 µM
# [7] = second compound 0.1 µM, first compound 0.0316 µM
# [8] = second compound 0.1 µM, first compound 0.1 µM
# [9] = second compound 0.1 µM, first compound 0.316 µM
# [10] = second compound 0.1 µM, first compound 1 µM
# [11] = second compound 0.1 µM, first compound 3.16 µM
# [12] = second compound 0.1 µM, first compound 10 µM
# [13] = second compound 0.316 µM, first compound 0.0316 µM
# [14] = second compound 0.316 µM, first compound 0.1 µM
# [15] = second compound 0.316 µM, first compound 0.316 µM
# [16] = second compound 0.316 µM, first compound 1 µM
# [17] = second compound 0.316 µM, first compound 3.16 µM
# [18] = second compound 0.316 µM, first compound 10 µM
# [19] = second compound 1 µM, first compound 0.0316 µM
# [20] = second compound 1 µM, first compound 0.1 µM
# [21] = second compound 1 µM, first compound 0.316 µM
# [22] = second compound 1 µM, first compound 1 µM
# [23] = second compound 1 µM, first compound 3.16 µM
# [24] = second compound 1 µM, first compound 10 µM
# [25] = second compound 3.16 µM, first compound 0.0316 µM
# [26] = second compound 3.16 µM, first compound 0.1 µM
# [27] = second compound 3.16 µM, first compound 0.316 µM
# [28] = second compound 3.16 µM, first compound 1 µM
# [29] = second compound 3.16 µM, first compound 3.16 µM
# [30] = second compound 3.16 µM, first compound 10 µM
# [31] = second compound 10 µM, first compound 0.0316 µM
# [32] = second compound 10 µM, first compound 0.1 µM
# [33] = second compound 10 µM, first compound 0.316 µM
# [34] = second compound 10 µM, first compound 1 µM
# [35] = second compound 10 µM, first compound 3.16 µM
# [36] = second compound 10 µM, first compound 10 µM
# 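Also: spheroids exposed to drugs for seven days before reading.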
# 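For viability, T/C in this document: 100% = DMSO vehicle control viability in luminescence.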
smiles,measurement,setting,value
COc1cc2cc(C(=O)CCC(=O)O)sc2cc1OC + Cc1cccc(N(C)C(=O)C2C(O)CCN2c2nc(C)cc(C(F)(F)F)c2C#N)c1,IC50,second compound 0.0316 µM,> 10000 nM
same,IC50,second compound 0.1 µM,> 10000 nM
same,IC50,second compound 0.316 µM,> 10000 nM
same,IC50,second compound 1 µM,> 10000 nM
same,IC50,second compound 3.16 µM,> 10000 nM
same,IC50,second compound 10 µM,> 10000 nM
same,"viability, T/C",[1],114%
same,"viability, T/C",[2],97.4%
same,"viability, T/C",[3],94.9%
same,"viability, T/C",[4],95.8%
same,"viability, T/C",[5],98.7%
same,"viability, T/C",[6],92.5%
same,"viability, T/C",[7],107%
same,"viability, T/C",[8],99.6%
same,"viability, T/C",[9],96.1%
same,"viability, T/C",[10],110%
same,"viability, T/C",[11],103%
same,"viability, T/C",[12],107%
same,"viability, T/C",[13],102%
same,"viability, T/C",[14],100%
same,"viability, T/C",[15],93.8%
same,"viability, T/C",[16],101%
same,"viability, T/C",[17],104%
same,"viability, T/C",[18],110%
same,"viability, T/C",[19],101%
same,"viability, T/C",[20],106%
same,"viability, T/C",[21],97.7%
same,"viability, T/C",[22],108%
same,"viability, T/C",[23],108%
same,"viability, T/C",[24],105%
same,"viability, T/C",[25],108%
same,"viability, T/C",[26],104%
same,"viability, T/C",[27],96.3%
same,"viability, T/C",[28],96.6%
same,"viability, T/C",[29],101%
same,"viability, T/C",[30],105%
same,"viability, T/C",[31],103%
same,"viability, T/C",[32],102%
same,"viability, T/C",[33],103%
same,"viability, T/C",[34],102%
same,"viability, T/C",[35],111%
same,"viability, T/C",[36],97.4%
CC1COCCN1c1cc(-c2ccnn2C)c2ccnc(-c3ccn[nH]3)c2n1 (centres undefined) + Nc1ccc(C#CCN(C(=O)Cc2ncc(C(F)(F)F)cc2C(F)(F)F)c2ccc(F)cc2)nn1,IC50,second compound 0.0316 µM,592 nM
same,IC50,second compound 0.1 µM,444 nM
same,IC50,second compound 0.316 µM,508 nM
same,IC50,second compound 1 µM,651 nM
same,IC50,second compound 3.16 µM,570 nM
same,IC50,second compound 10 µM,895 nM
same,"viability, T/C",[1],104%
same,"viability, T/C",[2],83.7%
same,"viability, T/C",[3],59.6%
same,"viability, T/C",[4],37%
same,"viability, T/C",[5],44%
same,"viability, T/C",[6],46.1%
same,"viability, T/C",[7],101%
same,"viability, T/C",[8],86.1%
same,"viability, T/C",[9],54.1%
same,"viability, T/C",[10],38.7%
same,"viability, T/C",[11],40.2%
same,"viability, T/C",[12],46.2%
same,"viability, T/C",[13],96.8%
same,"viability, T/C",[14],93.5%
same,"viability, T/C",[15],53.6%
same,"viability, T/C",[16],35.5%
same,"viability, T/C",[17],45.6%
same,"viability, T/C",[18],54.2%
same,"viability, T/C",[19],95.8%
same,"viability, T/C",[20],84.5%
same,"viability, T/C",[21],61.4%
same,"viability, T/C",[22],40.2%
same,"viability, T/C",[23],41.2%
same,"viability, T/C",[24],45%
same,"viability, T/C",[25],100%
same,"viability, T/C",[26],81.9%
same,"viability, T/C",[27],59.6%
same,"viability, T/C",[28],36.5%
same,"viability, T/C",[29],42%
same,"viability, T/C",[30],47.1%
same,"viability, T/C",[31],97.8%
same,"viability, T/C",[32],85.9%
same,"viability, T/C",[33],63.9%
same,"viability, T/C",[34],43.5%
same,"viability, T/C",[35],46.3%
same,"viability, T/C",[36],50.8%
